Experimental data from patent US20220281848A1, “PYRAZOLE-SUBSTITUTED PYRROLIDINONES AS HERBICIDES” (FMC Corporation, priority 2019, published 2022).

Key:
Assay type in all cases: in vivo
Conditions in all cases: 19 to 21 days
[1] = tested on: Italian ryegrass (Lolium multiflorum); assay: Test B preemergence, Italian ryegrass
Description: (§1) Seeds of plant species selected from blackgrass (Alopecurus myosuroides), Italian ryegrass (Lolium multiflorum), wheat, winter (winter wheat, Triticum aestivum), corn (Zea mays), large (Lg) crabgrass (Digitaria sanguinalis), giant foxtail (Setaria faberi), johnsongrass (Sorghum halepense), ragweed (common ragweed, Ambrosia elatior), soybean (Glycine max), barnyardgrass (Echinochloa crus-galli), waterhemp (common waterhemp, Amaranthus rudis), palmer pigweed (Amaranthus palmeri), and surinam grass (Brachiaria decumbens), were planted into a silt loam soil and treated preemergence with test chemicals formulated in a non-phytotoxic solvent mixture which included a surfactant.
(§2) Treated plants and controls were maintained in a greenhouse for 19 to 21 days, after which time all species were compared to controls and visually evaluated. Plant response ratings, summarized in Table B, are based on a scale of 0 to 100 where 0 is no effect and 100 is complete control.

[2] = tested on: wheat, winter (winter wheat, Triticum aestivum); assay: Test B preemergence, wheat, winter
Description: as §1, §2

[3] = tested on: johnsongrass (Sorghum halepense); assay: Test B preemergence, johnsongrass
Description: as §1, §2

[4] = tested on: ragweed (common ragweed, Ambrosia elatior); assay: Test B preemergence, ragweed
Description: as §1, §2

[5] = tested on: soybean (Glycine max); assay: Test B preemergence, soybean
Description: as §1, §2

[6] = tested on: barnyardgrass (Echinochloa crus-galli); assay: Test B preemergence, barnyardgrass
Description: as §1, §2

[7] = tested on: waterhemp (common waterhemp, Amaranthus rudis); assay: Test B preemergence, waterhemp
Description: as §1, §2

[8] = tested on: surinam grass (Brachiaria decumbens); assay: Test B preemergence, surinam grass
Description: as §1, §2

[9] = tested on: corn (Zea mays); assay: Test C preemergence, corn
Description: (§3) Seeds of plant species selected from corn (Zea mays), soybean (Glycine max), velvetleaf (Abutilon theophrasti), palmer pigweed (Amaranthus palmeri), waterhemp (common waterhemp, Amaranthus rudis), surinam grass (Brachiaria decumbens), large (Lg) crabgrass (Digitaria sanguinalis), fall panicum (Panicum dichotomiflorum), giant foxtail (Setaria faberi), ragweed (common ragweed, Ambrosia elatior), barnyardgrass (Echinochloa crus-galli), E. Black Nightshade (Solanum ptycanthum), and horseweed (Conyza canadensis), were planted into a silt loam soil and treated preemergence with test chemicals formulated in a non-phytotoxic solvent mixture which included a surfactant.
(§4) Treated plants and controls were maintained in a greenhouse for 19 to 21 days, after which time all species were compared to controls and visually evaluated. Plant response ratings, summarized in Table C, are based on a scale of 0 to 100 where 0 is no effect and 100 is complete control.

[10] = tested on: soybean (Glycine max); assay: Test C preemergence, soybean
Description: as §3, §4

[11] = tested on: velvetleaf (Abutilon theophrasti); assay: Test C preemergence, velvetleaf
Description: as §3, §4

[12] = tested on: palmer pigweed (Amaranthus palmeri); assay: Test C preemergence, palmer pigweed
Description: as §3, §4

[13] = tested on: waterhemp (common waterhemp, Amaranthus rudis); assay: Test C preemergence, waterhemp
Description: as §3, §4

[14] = tested on: surinam grass (Brachiaria decumbens); assay: Test C preemergence, surinam grass
Description: as §3, §4

[15] = tested on: large (Lg) crabgrass (Digitaria sanguinalis); assay: Test C preemergence, large crabgrass
Description: as §3, §4

[16] = tested on: giant foxtail (Setaria faberi); assay: Test C preemergence, giant foxtail
Description: as §3, §4

[17] = tested on: ragweed (common ragweed, Ambrosia elatior); assay: Test C preemergence, ragweed
Description: as §3, §4

[18] = tested on: barnyardgrass (Echinochloa crus-galli); assay: Test C preemergence, barnyardgrass
Description: as §3, §4

CN1C[C@H](c2cc(C(F)(F)F)n(C)n2)[C@@H](C(=O)Nc2cccc(F)c2F)C1=O [Compound 13, (3S,4R)—N-(2,3-difluorophenyl)-1-methyl-4-[1-methyl-5-(trifluoromethyl)-1H-pyrazol-3-yl]-2-oxo-3-pyrrolidinecarboxamide]
98: Plant response rating (0 no effect, 100 complete control) Crabgrass, Large ([15]; 16 g ai/ha Preemergence) | Plant response rating (0 no effect, 100 complete control) Crabgrass, Large ([15]; 31 g ai/ha Preemergence) | Plant response rating (0 no effect, 100 complete control) Crabgrass, Large ([15]; 62 g ai/ha Preemergence) | Plant response rating (0 no effect, 100 complete control) Crabgrass, Large ([15]; 125 g ai/ha Preemergence)
25: Plant response rating (0 no effect, 100 complete control) Ryegrass, Italian ([1]; 31 g ai/ha Preemergence)
85: Plant response rating (0 no effect, 100 complete control) Barnyardgrass ([6]; 16 g ai/ha Preemergence)
8: Plant response rating (0 no effect, 100 complete control) Johnsongrass ([3]; 31 g ai/ha Preemergence) | Plant response rating (0 no effect, 100 complete control) Soybean ([5]; 125 g ai/ha Preemergence)
78: Plant response rating (0 no effect, 100 complete control) Surinam Grass ([8]; 31 g ai/ha Preemergence)
92: Plant response rating (0 no effect, 100 complete control) Ryegrass, Italian ([1]; 125 g ai/ha Preemergence)
73: Plant response rating (0 no effect, 100 complete control) Foxtail, Giant ([16]; 16 g ai/ha Preemergence)
15: Plant response rating (0 no effect, 100 complete control) Johnsongrass ([3]; 62 g ai/ha Preemergence) | Plant response rating (0 no effect, 100 complete control) Waterhemp ([7]; 125 g ai/ha Preemergence) | Plant response rating (0 no effect, 100 complete control) Corn ([9]; 125 g ai/ha Preemergence)
58: Plant response rating (0 no effect, 100 complete control) Surinam Grass ([14]; 16 g ai/ha Preemergence)
95: Plant response rating (0 no effect, 100 complete control) Barnyardgrass ([6]; 31 g ai/ha Preemergence) | Plant response rating (0 no effect, 100 complete control) Barnyardgrass ([6]; 62 g ai/ha Preemergence) | Plant response rating (0 no effect, 100 complete control) Surinam Grass ([8]; 62 g ai/ha Preemergence) | Plant response rating (0 no effect, 100 complete control) Foxtail, Giant ([16]; 62 g ai/ha Preemergence) | Plant response rating (0 no effect, 100 complete control) Foxtail, Giant ([16]; 125 g ai/ha Preemergence)
68: Plant response rating (0 no effect, 100 complete control) Barnyardgrass ([18]; 31 g ai/ha Preemergence)
55: Plant response rating (0 no effect, 100 complete control) Johnsongrass ([3]; 125 g ai/ha Preemergence) | Plant response rating (0 no effect, 100 complete control) Foxtail, Giant ([16]; 8 g ai/ha Preemergence)
65: Plant response rating (0 no effect, 100 complete control) Ryegrass, Italian ([1]; 62 g ai/ha Preemergence) | Plant response rating (0 no effect, 100 complete control) Surinam Grass ([8]; 16 g ai/ha Preemergence)
90: Plant response rating (0 no effect, 100 complete control) Surinam Grass ([14]; 31 g ai/ha Preemergence)
89: Plant response rating (0 no effect, 100 complete control) Surinam Grass ([14]; 62 g ai/ha Preemergence) | Plant response rating (0 no effect, 100 complete control) Crabgrass, Large ([15]; 8 g ai/ha Preemergence)
20: Plant response rating (0 no effect, 100 complete control) Wheat ([2]; 31 g ai/ha Preemergence) | Plant response rating (0 no effect, 100 complete control) Waterhemp ([13]; 62 g ai/ha Preemergence) | Plant response rating (0 no effect, 100 complete control) Waterhemp ([13]; 125 g ai/ha Preemergence)
28: Plant response rating (0 no effect, 100 complete control) Pigweed, Palmer ([12]; 125 g ai/ha Preemergence) | Plant response rating (0 no effect, 100 complete control) Barnyardgrass ([18]; 8 g ai/ha Preemergence)
30: Plant response rating (0 no effect, 100 complete control) Surinam Grass ([14]; 4 g ai/ha Preemergence) | Plant response rating (0 no effect, 100 complete control) Surinam Grass ([14]; 8 g ai/ha Preemergence)
97: Plant response rating (0 no effect, 100 complete control) Barnyardgrass ([6]; 125 g ai/ha Preemergence) | Plant response rating (0 no effect, 100 complete control) Barnyardgrass ([18]; 62 g ai/ha Preemergence) | Plant response rating (0 no effect, 100 complete control) Barnyardgrass ([18]; 125 g ai/ha Preemergence)
0: Plant response rating (0 no effect, 100 complete control) Ryegrass, Italian ([1]; 16 g ai/ha Preemergence) | Plant response rating (0 no effect, 100 complete control) Johnsongrass ([3]; 16 g ai/ha Preemergence) | Plant response rating (0 no effect, 100 complete control) Ragweed ([4]; 16 g ai/ha Preemergence) | Plant response rating (0 no effect, 100 complete control) Ragweed ([4]; 31 g ai/ha Preemergence) | Plant response rating (0 no effect, 100 complete control) Ragweed ([4]; 62 g ai/ha Preemergence) | Plant response rating (0 no effect, 100 complete control) Ragweed ([4]; 125 g ai/ha Preemergence) | Plant response rating (0 no effect, 100 complete control) Soybean ([5]; 16 g ai/ha Preemergence) | Plant response rating (0 no effect, 100 complete control) Soybean ([5]; 31 g ai/ha Preemergence) | Plant response rating (0 no effect, 100 complete control) Soybean ([5]; 62 g ai/ha Preemergence) | Plant response rating (0 no effect, 100 complete control) Waterhemp ([7]; 16 g ai/ha Preemergence) | Plant response rating (0 no effect, 100 complete control) Waterhemp ([7]; 31 g ai/ha Preemergence) | Plant response rating (0 no effect, 100 complete control) Waterhemp ([7]; 62 g ai/ha Preemergence) | Plant response rating (0 no effect, 100 complete control) Corn ([9]; 4 g ai/ha Preemergence) | Plant response rating (0 no effect, 100 complete control) Corn ([9]; 8 g ai/ha Preemergence) | Plant response rating (0 no effect, 100 complete control) Corn ([9]; 16 g ai/ha Preemergence) | Plant response rating (0 no effect, 100 complete control) Corn ([9]; 31 g ai/ha Preemergence) | Plant response rating (0 no effect, 100 complete control) Corn ([9]; 62 g ai/ha Preemergence) | Plant response rating (0 no effect, 100 complete control) Soybean ([10]; 4 g ai/ha Preemergence) | Plant response rating (0 no effect, 100 complete control) Soybean ([10]; 8 g ai/ha Preemergence) | Plant response rating (0 no effect, 100 complete control) Soybean ([10]; 16 g ai/ha Preemergence) | Plant response rating (0 no effect, 100 complete control) Soybean ([10]; 31 g ai/ha Preemergence) | Plant response rating (0 no effect, 100 complete control) Soybean ([10]; 62 g ai/ha Preemergence) | Plant response rating (0 no effect, 100 complete control) Soybean ([10]; 125 g ai/ha Preemergence) | Plant response rating (0 no effect, 100 complete control) Velvetleaf ([11]; 4 g ai/ha Preemergence) | Plant response rating (0 no effect, 100 complete control) Velvetleaf ([11]; 8 g ai/ha Preemergence) | Plant response rating (0 no effect, 100 complete control) Velvetleaf ([11]; 16 g ai/ha Preemergence) | Plant response rating (0 no effect, 100 complete control) Velvetleaf ([11]; 31 g ai/ha Preemergence) | Plant response rating (0 no effect, 100 complete control) Velvetleaf ([11]; 62 g ai/ha Preemergence) | Plant response rating (0 no effect, 100 complete control) Velvetleaf ([11]; 125 g ai/ha Preemergence) | Plant response rating (0 no effect, 100 complete control) Pigweed, Palmer ([12]; 4 g ai/ha Preemergence) | Plant response rating (0 no effect, 100 complete control) Pigweed, Palmer ([12]; 8 g ai/ha Preemergence) | Plant response rating (0 no effect, 100 complete control) Pigweed, Palmer ([12]; 16 g ai/ha Preemergence) | Plant response rating (0 no effect, 100 complete control) Pigweed, Palmer ([12]; 31 g ai/ha Preemergence) | Plant response rating (0 no effect, 100 complete control) Pigweed, Palmer ([12]; 62 g ai/ha Preemergence) | Plant response rating (0 no effect, 100 complete control) Waterhemp ([13]; 4 g ai/ha Preemergence) | Plant response rating (0 no effect, 100 complete control) Waterhemp ([13]; 8 g ai/ha Preemergence) | Plant response rating (0 no effect, 100 complete control) Waterhemp ([13]; 16 g ai/ha Preemergence) | Plant response rating (0 no effect, 100 complete control) Waterhemp ([13]; 31 g ai/ha Preemergence) | Plant response rating (0 no effect, 100 complete control) Foxtail, Giant ([16]; 4 g ai/ha Preemergence) | Plant response rating (0 no effect, 100 complete control) Ragweed ([17]; 4 g ai/ha Preemergence) | Plant response rating (0 no effect, 100 complete control) Ragweed ([17]; 8 g ai/ha Preemergence) | Plant response rating (0 no effect, 100 complete control) Ragweed ([17]; 16 g ai/ha Preemergence) | Plant response rating (0 no effect, 100 complete control) Ragweed ([17]; 31 g ai/ha Preemergence) | Plant response rating (0 no effect, 100 complete control) Ragweed ([17]; 62 g ai/ha Preemergence) | Plant response rating (0 no effect, 100 complete control) Ragweed ([17]; 125 g ai/ha Preemergence) | Plant response rating (0 no effect, 100 complete control) Barnyardgrass ([18]; 4 g ai/ha Preemergence)
3: Plant response rating (0 no effect, 100 complete control) Wheat ([2]; 16 g ai/ha Preemergence)
63: Plant response rating (0 no effect, 100 complete control) Wheat ([2]; 125 g ai/ha Preemergence) | Plant response rating (0 no effect, 100 complete control) Barnyardgrass ([18]; 16 g ai/ha Preemergence)
70: Plant response rating (0 no effect, 100 complete control) Crabgrass, Large ([15]; 4 g ai/ha Preemergence)
88: Plant response rating (0 no effect, 100 complete control) Foxtail, Giant ([16]; 31 g ai/ha Preemergence)
99: Plant response rating (0 no effect, 100 complete control) Surinam Grass ([14]; 125 g ai/ha Preemergence)
93: Plant response rating (0 no effect, 100 complete control) Surinam Grass ([8]; 125 g ai/ha Preemergence)
40: Plant response rating (0 no effect, 100 complete control) Wheat ([2]; 62 g ai/ha Preemergence)
